Test results: ChEMBL document CHEMBL3593223, “Neolignans with a Rare 2-Oxaspiro[4.5]deca-6,9-dien-8-one Motif from the Stem Bark of Cinnamomum subavenium” (J Nat Prod, 2015)

Key:
RAW264.7 = experiment: Antiinflammatory activity in mouse RAW264.7 cells assessed as inhibition of LPS-induced nitric oxide production after 24 hrs by Griess assay; assay type: functional, cell-based; settings: RAW264.7, 24 h
[1] = Cytotoxicity against mouse RAW264.7 cells assessed as survival rate at 200 uM after 48 hrs by MTT assay in absence of LPS relative to control; assay type: cell-based; settings: read-out: Survival
[2] = Cytotoxicity against mouse RAW264.7 cells assessed as survival rate at 200 uM after 48 hrs by MTT assay in presence of LPS relative to control; assay type: cell-based; settings: read-out: Survival

Work on `C[C@@H]1C[C@H]2[C@@H]3CCC4=CC(=O)C=C[C@]4(C)[C@@]3(F)[C@@H](O)C[C@]2(C)[C@@]1(O)C(=O)CO` [DEXAMETHASONE] yielded an IC50 (RAW264.7) of 0.63 µM, a viability at 48 h, 200 µM [1] of 91% and a viability at 48 h, 200 µM [2] of 100%.
Compound `COC1=CC2(C=C(OC)C1=O)[C@H](CO)[C@@H](c1cc(OC)c(O)c(OC)c1)O[C@@H]2[C@@H](O)CO` has an IC50 (RAW264.7) of 15.1 µM, a viability at 48 h, 200 µM [1] of 101% and a viability at 48 h, 200 µM [2] of 109%.
For `COC1=CC2(C=C(OC)C1=O)[C@@H](CO)[C@H](c1ccc(O)c(OC)c1)O[C@H]2[C@H](O)CO`, the IC50 (RAW264.7) was 5.6 µM, the viability at 48 h, 200 µM [1] was 99% and the viability at 48 h, 200 µM [2] was 90%.
Compound `COC1=CC2(C=C(OC)C1=O)[C@@H](CO)[C@H](c1cc(OC)c(O)c(OC)c1)O[C@H]2[C@H](O)CO` has an IC50 (RAW264.7) of 4.3 µM, a viability at 48 h, 200 µM [1] of 102% and a viability at 48 h, 200 µM [2] of 111%.
`COC1=CC2(C=C(OC)C1=O)[C@H](CO)[C@@H](c1ccc(O)c(OC)c1)O[C@@H]2[C@@H](O)CO` gave an IC50 (RAW264.7) of 17.9 µM, a viability at 48 h, 200 µM [1] of 98% and a viability at 48 h, 200 µM [2] of 104%.
